The subject of one series is ACHN. Put plainly: MTT cytotoxicity, ACHN. Type of series: cell-based. The settings on record: Homo sapiens, Renal, 72 hrs, read-out: LC50 (the source's name). As to the method: (§1) The cytotoxicity of ZTP and ZTQ was analyzed by using human tumor cell lines. Human tumor cell lines were purchased from ATCC and NCI, and cultured in DMEM medium containing 10% FBS at 37° C. in 5% CO2 in an incubator. The cells grown to confluence were used for cytotoxicity analysis. The cells were digested with trypsin, washed with the culture medium, and then counted. 33 tumor cell lines were cultured. The cells were seeded at a density of 3000-6000 cells/well in a 96-well plate and incubated for 16-24 hrs. Then, various concentrations of ZTP or ZTQ dissolved in DMSO were added, and cultured for 72 hrs. The drug-treated cells and control cells were analyzed by MTT.

Series [1] in a line: MTT cytotoxicity, HUMEC human microvascular endothelial cell. Type of series: cell-based. The settings on record: HUMEC human microvascular endothelial cells, read-out: LC50. As to the method:
[Worded in the source for another cell line; this cell line is reported under the same test.] as §1

The next series deals with IGROV1. Put plainly: MTT cytotoxicity, IGROV1. As to conditions: Homo sapiens, IGROV-1, IGROV1, Ovarian, 72 hrs, read-out: LC50 (the source's name). The format is cell-based. As to the method:
as §1

For the next series, the system named is Raf protein kinase. The experiment in a line: Inhibition of Raf protein kinase activity (phosphorylated MEK, western blotting) in MDA-MB-321 cells. Type of series: cell-based, human. The settings on record: 1 hour treatment, phosphorylated MEK level, read-out: median inhibitory concentration (IC50) for inhibiting the activity of Raf protein kinase. The source says:
Raf is a proto-oncogenic product, and activation of Raf is regulated with stimulation from extracellular cell growth factors. Once activated, Raf can activate MEK through phosphorylation, and further transmits an activation signal to ERK, thereby promoting the growth of tumor cells. In this test, the level of phosphorylated MEK in cells is indicative of the activity of Raf protein kinase in cells. MDA-MB-321 is a human derived breast cancer cell line, which is rich in Raf protein. We used MDA-MB-321 cells to detect whether ZTP and ZTQ can inhibit the activity of Raf protein kinase. MDA-MB-321 cells were subjected to adherent growth in the RPMI 1640 medium (GIBCO-BRL) containing 10% bovine calf serum at 37° C. in 5% CO2. The cells were treated with various concentrations of ZTP and ZTQ (0, 10 ng/ml, 100 ng/ml, 500 ng/ml, 1 μg/ml, and 10 μg/ml), and the cell proteins were collected 1 hour after treatment. The protein content was determined through Bradford method, and then the level of phosphorylated MEK was assayed through western blotting. Immunoblotting experiment: denatured polyacrylamide gel was used for separation of the proteins with a sample load of 60 μg of total proteins. The proteins were electro-transferred onto a PVDF membrane and blocked. […] The membrane was exposed to an X-ray film, and the results were analyzed by a gel imaging system. […]
For orientation: Immunoblotting shows a protein as a band on a membrane.

Series [2] concerns human lung cancer cells (NCI-H23). The experiment in a line: Transplantation model of human lung cancer (NCI-H23) in nude mice. Type of series: in vivo, nude mice (nu/nu). The settings on record: NCI-H23 subcutaneous in nude mice; oral daily 5 days/week, 3 weeks; ZTP 30 mg/kg, ZTQ 60 mg/kg; lower = stronger. As to the method:
(§2) T-cell deficient nude mice (nu/nu) of 6 weeks old were purchased from Charles River Laboratory, and housed and treated in a sterile environment following Institutional Animal Care & Use Committee Program. 48 mice were respectively subcutaneously inoculated on ribbed belly with 5×10^6 human liver cancer cells (HepG3B), human lung caner cells (NCI-H23), and human colon cancer cells (HCT-116) suspended in 0.2 ml HBSS/matrigel (50:50, V/V). When the tumor grew to have an average diameter of 7-8 mm and a volume of about 100-200 mm^3, 24 mice were picked up, and assigned to treatment groups (16 animals/2 groups), and a control group (8 animals). The 2 treatment groups were administered with the compounds ZTP and ZTQ dissolved in 15% Captsol respectively at a dose of 30 mg/kg and 60 mg/kg, and the control group only received an excipient (15% Captsol).
(§3) The same number of mice of each type was assigned to the control group and the treatment groups with the compounds ZTP and ZTQ respectively.
(§4) The dose schedule of the test compounds in the tumor transplanted nude mice was as follows: the compounds ZTP and ZTQ dissolved in 15% Captsol were daily orally administered as a 200 μl solution containing 0.75 mg of ZTP and 1.5 mg of ZTQ for 5 days/week over 3 consecutive weeks, followed by one-week break; and the control group was only administered with 200 μl of the placebo (15% Captsol) for 3 weeks, followed by 1 week of break. The two groups of animals were housed separately, and allowed to free access to food.
(§5) Evaluation of antitumor effect: the tumor size was measured every 3 or 4 days. The tumor volume was calculated using the equation below: […], in which a denotes the width (the shorter diameter), and b denotes the length (the longer diameter). Relative tumor volume (RTV) of each tumor refers to the ratio of the volume at a specified time to that at the beginning of the treatment. The average RTV for each treatment group was calculated. The antitumor activity was determined by calculating the tumor growth inhibition using a formula below. […]

In series [3] the test system is human colon cancer cells (HCT-116). Put plainly: Transplantation model of human colon cancer (HCT-116) in nude mice. As to conditions: HCT-116 subcutaneous in nude mice; oral daily 5 days/week, 3 weeks; ZTP 30 mg/kg, ZTQ 60 mg/kg; lower = stronger. The format is in vivo, nude mice (nu/nu). As to the method:
as §2, §3, §4, §5

A further series relates to Caki-1. Put plainly: MTT cytotoxicity, Caki-1. As to conditions: Homo sapiens, Caki-1, Renal, 72 hrs, read-out: LC50 (the source's name). Type of series: cell-based. As to the method:
as §1

A short description of series [4]: Acute toxicity studies in mice. Type of series: in vivo. As to conditions: for death of test mice: single dose of 500 mg/kg and divided doses of 100 mg/kg. The source says:
After tests, the mice were sacrificed for pathological analysis.

The test system of another series is SK-MEL-5. The experiment in a line: MTT cytotoxicity, SK-MEL-5. Type of series: cell-based. The settings on record: Homo sapiens, SK-MEL-5, Skin (melanoma), 72 hrs, read-out: LC50 (the source's name). As to the method:
as §1

The subject of series [5] is human liver cancer cells (HepG3B). Put plainly: Transplantation model of human liver cancer (HepG3B) in nude mice. Type of series: in vivo, nude mice (nu/nu). As to conditions: HepG3B subcutaneous in nude mice; oral daily 5 days/week, 3 weeks; ZTP 30 mg/kg, ZTQ 60 mg/kg; lower = stronger. As to the method: as §2, §3, §4, §5
The subject of a further series is BT-549. The experiment in a line: MTT cytotoxicity, BT-549. The format is cell-based. The settings on record: Homo sapiens, BT-549, Breast, 72 hrs, read-out: LC50 (the source's name). Here is the method:
as §1

[6] abbreviates: divided doses of 100 mg/kg, observed 4 weeks.
Setting [7] is: single dose of 500 mg/kg, observed 1 week.

Experimental findings from patent US20130225641A1, “ANTICANCER COMPOUNDS AND PREPARATION METHODS THEREOF” (priority 2010, published 2013) are described below.

Turning to `CNC(=O)c1cc(Sc2ccc(NC(=S)Nc3ccc(Cl)c(C(F)(F)F)c3)cc2)ccn1` [ZTQ, N-[4-chloro-3-(trifluoromethyl)phenyl]-[4-(N-methyl-formamide)(4-pyridylthio)phenyl]-thiourea], the CC50 in the series on ACHN turned out to be 1210 nM; with IGROV1, 730 nM; with Caki-1, 910 nM; with SK-MEL-5 it was 1540 nM; in the series with BT-549, 890 nM. Also, the CC50 at 72 h in series [1] was 19 nM. Further, the IC50 in the series with Raf protein kinase is 20 nM. Besides, the figures for the “TGI (T/C×100)” value in series [2], in series [3] and in series [5] were 9.21%, 6.45% and 1.75%, respectively. Besides, the acute toxicity entry in [4] (setting [6]) and in [4] (setting [7]) was “no obvious toxicity” each time. The “death of test mice” value in [4] is “no death occurs”.

For `CNC(=O)c1cc(Oc2ccc(NC(=S)Nc3ccc(Cl)c(C(F)(F)F)c3)cc2)ccn1` [ZTP, N-[4-chloro-3-(trifluoromethyl)phenyl]-[4-(N-methyl-formamide)(4-pyridyloxy)phenyl]-thiourea], the CC50 in the series on ACHN was 1610 nM; in the series on IGROV1, 920 nM; with Caki-1, 1120 nM; in the series with SK-MEL-5 it was 1990 nM; in the series with BT-549, 1090 nM. Besides, the CC50 at 72 h in [1] amounted to 31 nM. The IC50 with Raf protein kinase was 45 nM. In addition, the “TGI (T/C×100)” value in series [2] is reported as 10%; in series [3], 29.2%; in series [5], 13%. The acute toxicity entry in [4] (setting [6]) and in [4] (setting [7]) was “no obvious toxicity” throughout. In addition, the “death of test mice” value in [4] is given as “no death occurs”.
